This passage reports MIC and melting point results from patent US20070054884A1 (priority 2005, published 2007).

≈ marks a conversion by molar mass, not a printed value.

The first data set has as its system B.anthracis V770-NR1-R. In words: microbe, parasite or virus in culture. To be noted: Bacillus anthracis, V770NR1R, read-out: MIC B.anthracis V770-NR1-R. In kind it is cell-based.
`CCOC(=O)NC(=S)Nc1cc(Oc2ccc(Cl)cc2Cl)c(O)cc1Cl` [Example 7]: the MIC amounted to 1600 µg/mL (≈ 3.67 mM).

As to `Oc1cc(Cl)c(NC(=S)Nc2ccc(F)cc2)cc1Oc1ccc(Cl)cc1Cl` [Example 10, 1-[2-Chloro-5-(2,4-dichloro-phenoxy)-4-hydroxy-phenyl]-3-(4-fluoro-phenyl)-thiourea], the MIC was determined as 1600 µg/mL (≈ 3.5 mM).

For the compound `Oc1cc(Cl)c(-n2cnnn2)cc1Oc1ccc(Cl)cc1Cl` [Example 32, 5-Chloro-2-(2,4-dichloro-phenoxy)-4-tetrazol-1-yl-phenol], the MIC is 800 µg/mL (≈ 2.24 mM).

The test system of the next data set is S. aureus 29213. In words: Minimum Inhibitory Concentration (MIC), broth dilution method. It is filed as cell-based. The settings on record: Staphylococcus aureus, 29213, read-out: MIC S. aureus 29213. Here is the method: (§1) Minimum Inhibitory Concentration (MIC), Broth Dilution Method:
(§2) The compounds of the present invention were tested against selected Gram positive and Gram negative organisms using standard microtitration techniques well known to those skilled in the art. Cultures of bacteria were initially applied by streaking a loopful onto agar plates under the appropriate conditions. For example, bacterial stocks are streaked for isolation of single colonies onto chocolate agar and then incubated for 18 hours at 35-37° C. in a 5% CO2 incubator. Five to ten colonies were picked from the chocolate agar plate for subculture to Brain-Heart infusion (BHI) broth, Mueller Hinton broth, or BHI containing 4% serum, and incubated under the appropriate conditions. The ability of the test compound to act as an antimicrobial was determined by the ability of dilutions of the test substance to inhibit bacterial growth in vitro. The optical density of the culture of organisms in the presence of an active compound was compared to the optical density of the same organism grown without test compound. The activity of the compounds is described as either negative or the lowest concentration inhibiting growth (Minimum Inhibitory Concentration [MIC]).
(§3) The activity of selected compounds of the present invention against representative Gram positive and Gram negative bacteria are shown in the following Table 1.
On to `CCOC(=O)NC(=S)Nc1cc(Oc2ccc(Cl)cc2Cl)c(O)cc1Cl` [Example 7], for which the MIC was 2000 µg/mL (≈ 4.59 mM).

Take `Oc1cc(Cl)c(NC(=S)Nc2ccc(F)cc2)cc1Oc1ccc(Cl)cc1Cl` [Example 10, 1-[2-Chloro-5-(2,4-dichloro-phenoxy)-4-hydroxy-phenyl]-3-(4-fluoro-phenyl)-thiourea]: the MIC came out at 4000 µg/mL (≈ 8.74 mM).

As to `Oc1cc(Cl)c(-n2cnnn2)cc1Oc1ccc(Cl)cc1Cl` [Example 32, 5-Chloro-2-(2,4-dichloro-phenoxy)-4-tetrazol-1-yl-phenol], the MIC worked out at 1600 µg/mL (≈ 4.47 mM).

For another data set, the system named is S. pneumoniae 11733. The data set is described as above. In kind it is cell-based. The settings on record: Streptococcus pneumoniae, 11733, read-out: MIC S. pneumoniae 11733. Here is the method:
as §1, §2, §3
Turning to `CCOC(=O)NC(=S)Nc1cc(Oc2ccc(Cl)cc2Cl)c(O)cc1Cl` [Example 7], the MIC came to 31300 µg/mL (≈ 71.8 mM).

In the case of `Oc1cc(Cl)c(NC(=S)Nc2ccc(F)cc2)cc1Oc1ccc(Cl)cc1Cl` [Example 10, 1-[2-Chloro-5-(2,4-dichloro-phenoxy)-4-hydroxy-phenyl]-3-(4-fluoro-phenyl)-thiourea], the MIC was 31300 µg/mL (≈ 68.4 mM).

For the compound `Oc1cc(Cl)c(-n2cnnn2)cc1Oc1ccc(Cl)cc1Cl` [Example 32, 5-Chloro-2-(2,4-dichloro-phenoxy)-4-tetrazol-1-yl-phenol], the MIC was determined as 3100 µg/mL (≈ 8.67 mM).

In a further data set the test system is B. cereus. The description is as above. In kind it is cell-based. To be noted: Bacillus cereus, read-out: MIC B. cereus. Here is the method: as §1, §2, §3
As to `CCOC(=O)NC(=S)Nc1cc(Oc2ccc(Cl)cc2Cl)c(O)cc1Cl` [Example 7], the MIC is 800 µg/mL (≈ 1.84 mM).

`Oc1cc(Cl)c(NC(=S)Nc2ccc(F)cc2)cc1Oc1ccc(Cl)cc1Cl` [Example 10, 1-[2-Chloro-5-(2,4-dichloro-phenoxy)-4-hydroxy-phenyl]-3-(4-fluoro-phenyl)-thiourea]: the MIC is 400 µg/mL (≈ 0.874 mM).

`Oc1cc(Cl)c(-n2cnnn2)cc1Oc1ccc(Cl)cc1Cl` [Example 32, 5-Chloro-2-(2,4-dichloro-phenoxy)-4-tetrazol-1-yl-phenol]: the MIC was found to be 1300 µg/mL (≈ 3.64 mM).

Test system in another data set: not given
Test: not given
Conditions: not given
As for `CCOC(=O)NC(=S)Nc1cc(Oc2ccc(Cl)cc2Cl)c(O)cc1Cl` [Example 7], the melting point is 170 to 172 °C.

On to `Oc1cc(Cl)c(NC(=S)Nc2ccc(F)cc2)cc1Oc1ccc(Cl)cc1Cl` [Example 10, 1-[2-Chloro-5-(2,4-dichloro-phenoxy)-4-hydroxy-phenyl]-3-(4-fluoro-phenyl)-thiourea], for which the melting point lay in the range of 89 to 91 °C.

On to `Oc1cc(Cl)c(-n2cnnn2)cc1Oc1ccc(Cl)cc1Cl` [Example 32, 5-Chloro-2-(2,4-dichloro-phenoxy)-4-tetrazol-1-yl-phenol], for which the melting point lay in the range of 147 to 148 °C.
